# Assay results published in US8329672B2, “Oral and/or topical compositions comprising prebiotics and fatty acid” (Cognis IP Management GmbH, priority 2004, dated 2012).
# Experiments:
# Lactobacterium = experiment: Stimulation of growth of lactobacilli in vitro (enumeration in human faecal homogenate culture); format: cell-based, Lactobacillus spp; details: human faecal homogenate in diluted WC broth, incubated up to 24 hours, control 2.8 × 10^5
# Experimental: (§1) The stimulation of growth of microorganisms has been studied by enumerating bifidobacterium and lactobacilli in vitro in the presence of various test substances. More specifically, aliquots (1 mL) of human faecal homogenates (10 g per 100 mL diluent) were added to diluted WC broth (diluted 50:50 with 0.05M phosphate buffer) to which were added the test mixtures and a lactobacillus or bifidobacterium strain. For each of the combinations, parallel tubes were prepared with one set being inoculated with Bifidobacterium spp or Lactobacillus spp. All mixtures were then incubated for up to 24 hours and bacterial numbers enumerated.
# Bifidobacterium = experiment: Stimulation of growth of Bifidobacterium in vitro (enumeration in human faecal homogenate culture); format: cell-based, Bifidobacterium spp; details: human faecal homogenate in diluted WC broth, incubated up to 24 hours, control 1.0 × 10^6
# Experimental: as §1
molecule,measurement,setting,value
CLA [C5],Bacterial numbers (CFU/ml),Lactobacterium; 1% fatty acid alone,4.2 × × 10^5 CFU/ml
same,Bacterial numbers (CFU/ml),Bifidobacterium; 1% fatty acid alone,3.5 × × 10^6 CFU/ml
Lactolin [C3],Bacterial numbers (CFU/ml),Lactobacterium; 1% prebiotic alone,1.5 × × 10^6 CFU/ml
same,Bacterial numbers (CFU/ml),Bifidobacterium; 1% prebiotic alone,1.6 × × 10^7 CFU/ml
Betaglucan [C4],Bacterial numbers (CFU/ml),Lactobacterium; 1% prebiotic alone,1.1 × × 10^6 CFU/ml
same,Bacterial numbers (CFU/ml),Bifidobacterium; 1% prebiotic alone,1.2 × × 10^7 CFU/ml
CLA-TG [C6],Bacterial numbers (CFU/ml),Lactobacterium; 1% fatty acid alone,4.4 × × 10^5 CFU/ml
same,Bacterial numbers (CFU/ml),Bifidobacterium; 1% fatty acid alone,2.1 × × 10^6 CFU/ml
CLA-SE [C7],Bacterial numbers (CFU/ml),Lactobacterium; 1% fatty acid alone,4.4 × × 10^5 CFU/ml
same,Bacterial numbers (CFU/ml),Bifidobacterium; 1% fatty acid alone,2.9 × × 10^6 CFU/ml
"OC[C@H]1O[C@@H](O[C@H]2[C@H](O)[C@@H](O)[C@@H](O[C@]3(CO)O[C@H](CO)[C@@H](O)[C@@H]3O)O[C@@H]2CO)[C@H](O)[C@@H](O)[C@H]1O [C2, Lactosucrose]",Bacterial numbers (CFU/ml),Lactobacterium; 1% prebiotic alone,1.1 × × 10^6 CFU/ml
same,Bacterial numbers (CFU/ml),Bifidobacterium; 1% prebiotic alone,1.1 × × 10^7 CFU/ml
